The values that follow are results of earlier work, collected in US20110044993A1, “METHOD FOR THE PREVENTION AND TREATMENT OF CANCER BY INHIBITION OF GPVI” (priority 2008, published 2011).

This data set deals with T1, GPVI (Homo sapiens, UniProt Q9HCN6).
T1 sequence (Q9HCN6 21-339): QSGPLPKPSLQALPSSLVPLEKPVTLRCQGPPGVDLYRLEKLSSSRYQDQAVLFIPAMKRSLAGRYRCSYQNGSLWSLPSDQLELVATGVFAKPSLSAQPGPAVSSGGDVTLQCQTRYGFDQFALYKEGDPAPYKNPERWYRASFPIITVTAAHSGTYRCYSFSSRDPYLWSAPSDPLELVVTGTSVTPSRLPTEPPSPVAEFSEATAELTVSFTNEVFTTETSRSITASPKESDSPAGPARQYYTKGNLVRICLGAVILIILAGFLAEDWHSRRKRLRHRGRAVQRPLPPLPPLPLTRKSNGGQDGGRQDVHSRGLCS
T1 sequence (P30273 19-86 partner): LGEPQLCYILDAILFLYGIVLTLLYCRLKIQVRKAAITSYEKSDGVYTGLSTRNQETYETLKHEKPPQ
As to conditions: cited from earlier work.

As for `CCCCc1nc(Cl)c(C=O)n1Cc1ccc(-c2ccccc2-c2nn[nH]n2)cc1` [EXP3179], the “Inhibition of GPVI” value is recorded as “inhibits GPVI”.
